In US20260097037A1, “FUSED RING COMPOUND HAVING GLP-1 RECEPTOR AGONIST EFFECT” (Shionogi & Co., Ltd., priority 2022, published 2026):

Molecular target: T1, Human GLP-1 receptor stably expressing cells (hGLP-1R/CHO-K1 cells) (Homo sapiens, UniProt P43220)
T1 construct: expressed in transfected cells
Assay: Measurement of GLP-1 receptor agonist activity (cAMP assay)
Assay type: cell-based
Conditions: for Emax: CHO-K1, maximum effect, cAMP with 2 nM human GLP-1 (7-36) = 100%, DMSO only = 0%, read-out: Emax; for EC50: increase in cAMP concentration in hGLP-1R/CHO-K1 cells, 37° C. 1 hour
How it was run: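 hGLP-1R/CHO-K1 cells (cryopreserved) incubated with compound and forskolin in HBSS with 0.1% BSA, IBMX and RO20-1724, 1 h at 37° C; cAMP read by HTRF. EC50 and Emax from cAMP rise, normalised to 2 nM human GLP-1 (7-36) (100%) and DMSO (0%).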

T1 sequence (P43220 24-463): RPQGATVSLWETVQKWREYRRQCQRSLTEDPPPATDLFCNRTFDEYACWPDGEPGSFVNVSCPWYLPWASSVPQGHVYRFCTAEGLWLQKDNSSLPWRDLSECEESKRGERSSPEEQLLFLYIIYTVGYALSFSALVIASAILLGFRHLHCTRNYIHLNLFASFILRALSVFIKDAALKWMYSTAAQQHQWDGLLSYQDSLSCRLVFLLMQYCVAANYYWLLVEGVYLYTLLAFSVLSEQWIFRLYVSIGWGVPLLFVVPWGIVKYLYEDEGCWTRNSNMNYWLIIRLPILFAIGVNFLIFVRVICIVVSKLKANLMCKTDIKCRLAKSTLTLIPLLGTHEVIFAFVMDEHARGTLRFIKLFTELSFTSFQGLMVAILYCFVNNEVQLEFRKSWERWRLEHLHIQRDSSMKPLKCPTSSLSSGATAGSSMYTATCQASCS

Row | Emax [%] | EC50 [nM] | SMILES
1 | 105 | 0.0391 | COc1cc(C(=O)O)cc2c1nc(CN1CCc3cc(C(F)(F)F)c(NCc4ccc(Cl)cc4F)nc3[C@@H]1C)n2C[C@@H]1CCO1 [Compound I-150]
2 | 122 | 0.0463 | C[C@H]1c2nc(OCc3ccc(Cl)cc3F)c(C(F)F)cc2CCN1Cc1nc2ccc(C(=O)O)c(F)c2n1C[C@@H]1CCO1 [Compound I-116]
3 | 108 | 0.469 | C[C@H]1c2nc(OCc3c(F)cc(Cl)cc3F)c(C(F)F)cc2CCN1Cc1nc2ccc(C(=O)O)nc2n1C[C@@H]1CCO1 [Compound I-101]
4 | 128 | 0.0104 | COc1cc(C(=O)O)cc2c1nc(CN1CCc3cc(C(F)F)c(OCc4c(F)cc(Cl)cc4F)nc3[C@@H]1C)n2C[C@@H]1CCO1 [Compound I-134]
5 | 105 | 2.88 | C[C@H]1c2cc(OCc3ccc(Cl)cc3)c(C(F)F)cc2CCN1Cc1nc2ccc(C(=O)O)cc2n1C[C@@H]1CCO1 [Compound I-004]
6 | 123 | 0.37 | C[C@H]1c2nc(OCc3ccc(Cl)cc3Cl)c(Cl)cc2CCN1Cc1nc2ccc(C(=O)O)nc2n1C[C@@H]1CCO1 [Compound I-030]
7 | 136 | 0.224 | C[C@H]1c2nc(OCc3ccc(Cl)cc3F)c(C#N)cc2CCN1Cc1nc2ccc(C(=O)O)c(F)c2n1C[C@@H]1CCO1 [Compound I-137]
8 | 129 | 0.0999 | C[C@H]1c2nc(OCc3ccc(C#N)c4ccoc34)c(C(F)(F)F)cc2CCN1Cc1nc2ccc(C(=O)O)cc2n1C[C@@H]1CCO1 [Compound I-143]
9 | 122 | 0.0591 | COc1cc(C(=O)O)cc2c1nc(CN1CCc3cc(C(F)F)c(OCc4ccc(Cl)cn4)nc3[C@@H]1C)n2C[C@@H]1CCO1 [Compound I-133]
10 | 141 | 0.108 | COc1cc(C(=O)O)cc2c1nc(CN1CCc3cc(C(F)F)c(OCc4ccccc4Cl)nc3[C@@H]1C)n2C[C@@H]1CCO1 [Compound I-130]
11 | 108 | 0.354 | C[C@H]1c2nc(OCc3ccc(F)cc3F)c(C(F)F)cc2CCN1Cc1nc2ccc(C(=O)O)cc2n1C[C@@H]1CCO1 [Compound I-056]
